How the values were obtained:
[1] = target: T1, Bromodomain-containing protein 4 (Homo sapiens, UniProt O60885); experiment: Inhibition of BRD4 in human NCI-H1299 cells after 24 hrs by Bright-Glo luciferase reporter gene assay; type: cell-based
[2] = target: T1, Bromodomain-containing protein 4; experiment: Inhibition of human N-terminal His6-tagged BRD4 BD1-BD2 (57 to 550 residues) expressed in EScherichia coli BL21(DE3) after 1 hr by Alexa-647-conjugated probe based TR-FRET assay
MX1 = experiment: Antiproliferative activity against human MX1 cells after 72 hrs by Cell Titer Glo assay; type: functional, cell-based; conditions: MX1, 72 h
Liver [3] = experiment: Unbound intrinsic clearance in human liver microsomes; type: ADME, microsome
Liver [4] = experiment: Unbound intrinsic clearance in mouse liver microsomes; type: ADME, microsome
Liver [5] = experiment: Unbound intrinsic clearance in rat liver microsomes; type: ADME, microsome
Mus musculus [6] = experiment: Fraction absorbed in portal vein of mouse at 1 mg/kg, iv or 1 mg/kg, po; type: ADME, organism-based; conditions: in vivo
Mus musculus [7] = experiment: Unbound clearance in mouse at 1 mg/kg, iv or 1 mg/kg, po; type: ADME, organism-based; conditions: in vivo
[8] = Oral bioavailability in mouse at 1 mg/kg; type: ADME, organism-based; conditions: in vivo
[9] = Lipophilicity, log D of the compound; type: physicochemical; conditions: octanol/water
Mus musculus [10] = experiment: Unbound AUC in mouse at 1 mg/kg, po; type: ADME, organism-based; conditions: in vivo
[11] = Fraction unbound in mouse plasma at 1 uM after 4 hrs by LC-MS/MS analysis; type: ADME, cell-free
[12] = Permeability of the compound by PAMPA; type: physicochemical; conditions: read-out: permeability

Compound | EC50 [1] [nM] | Ki [2] [nM] | EC50 (MX1) [nM] | CL free (Liver [3]) [mL/min/kg] | CL free (Liver [4]) [mL/min/kg] | CL free (Liver [5]) [mL/min/kg] | FaFg (Mus musculus [6]) | CL free (Mus musculus [7]) [mL/min/kg] | bioavailability [8] [%] | logD [9] | fAUC (Mus musculus [10]) [ng·h/mL] | fraction unbound at 4 h, 1 µM [11] | Papp [12] [×10⁻⁶ cm/s]
COc1cc(=O)n(C)nc1-c1cc(N)ccc1Oc1ccccc1 | 2900 | 1700 | 7200 | – | – | – | – | – | – | – | – | – | –
CCOc1cc(=O)n(C)cc1-c1cc(NS(=O)(=O)CC)ccc1Oc1cccnc1 | 150 | 17 | 50 | < 31.7 | < 53.3 | < 53.3 | – | – | – | – | – | – | –
Cn1cc2c(cc1=O)OCCCCc1cc(Cl)ccc1Oc1ccc(CS(C)(=O)=O)cc1-2 | 18 | 3.8 | 19 | 267 | 1670 | 317 | 0.79 | 400 | 68 | 2.8 to 4.3 | 29 | 0.03 | 9.2
CCS(=O)(=O)Nc1ccc(Oc2ccc(F)cc2F)c(-c2cn(C)c(=O)cc2OCC(F)(F)F)c1 | 100 | 22 | 120 | – | – | – | – | – | – | 2.8 to 4.3 | – | – | –
CCOC(=O)Nc1ccc(Oc2ccccc2)c(-c2nn(C)c(=O)cc2OC)c1 | 4900 | 1100 | 4500 | – | – | – | – | – | – | – | – | – | –
CCOc1cc(=O)n(C)cc1-c1cc(NS(=O)(=O)CC)ccc1Oc1ccc(F)cc1 | 69 | 5.6 | 16 | < 33 | < 98.3 | 167 | – | – | – | – | – | – | –
CCS(=O)(=O)Nc1ccc(Oc2ccc(F)cc2F)c(-c2cn(C)c(=O)cc2OCC(C)C)c1 | 180 | 7 | 140 | – | – | – | – | – | – | 2.8 to 4.3 | – | – | –
CCS(=O)(=O)Nc1ccc(Oc2ccc(F)cc2F)c(-c2cn(C)c(=O)cc2OCC(C)(C)O)c1 | 1100 | 71 | 710 | – | – | – | – | – | – | 2.8 to 4.3 | – | – | –
CCOc1cc(=O)n(C)cc1-c1cc(NS(=O)(=O)CC)ccc1OC1CCC(F)(F)CC1 | 390 | 110 | 250 | 35 | 167 | 183 | – | – | – | – | – | – | –
CCS(=O)(=O)c1ccc2c(c1)-c1cn(C)c(=O)cc1OCCCc1ccccc1O2 | 26 | 7.3 | 6.9 | 148 | 900 | – | – | – | – | 2.8 to 4.3 | – | – | –
COc1cc(=O)n(C)nc1-c1cc(NS(C)(=O)=O)ccc1Oc1ccccc1 | 230 | 140 | 730 | – | – | – | – | – | – | – | – | – | –
CCOc1cc(=O)n(C)cc1-c1cc(NS(=O)(=O)CC)ccc1Oc1ccccc1 | 39 | 4.4 | 4.7 | 67 | 91.7 | 3000 | – | – | – | – | – | – | –
CCS(=O)(=O)Nc1ccc(Oc2ccccc2)c(-c2cn(C)c(=O)cc2OC)c1 | 67 | 8.2 | 16 | – | – | – | – | – | – | – | – | – | –
CCNc1cc(=O)n(C)cc1-c1cc(NS(=O)(=O)CC)ccc1Oc1ccc(F)cc1F | 140 | 14 | 30 | – | – | – | – | – | – | 2.8 to 4.3 | – | – | –
CCOc1cc(=O)n(C)cc1-c1cc(NS(=O)(=O)CC)cnc1Oc1ccc(F)cc1F | 45 | 8.7 | 32 | – | – | – | – | – | – | 2.8 to 4.3 | – | – | –
CCS(=O)(=O)c1ccc2c(c1)-c1cn(C)c(=O)cc1OCCCCc1ccccc1O2 | 6.7 | 1.9 | 10 | 130 | 867 | 533 | – | – | – | 2.8 to 4.3 | – | – | –

Compound | EC50 [1] [nM] | Ki [2] [nM] | EC50 (MX1) [nM] | CL free (Liver [3]) [mL/min/kg] | CL free (Liver [4]) [mL/min/kg] | CL free (Liver [5]) [mL/min/kg] | FaFg (Mus musculus [6]) | CL free (Mus musculus [7]) [mL/min/kg] | bioavailability [8] [%] | logD [9] | fAUC (Mus musculus [10]) [ng·h/mL] | fraction unbound at 4 h, 1 µM [11] | Papp [12] [×10⁻⁶ cm/s]
CCS(=O)(=O)Nc1ccc(Oc2ccc(F)cc2F)c(-c2cn(C)c(=O)cc2OCCN2CCOCC2)c1 | 2200 | 230 | > 3000 | – | – | – | – | – | – | 2.8 to 4.3 | – | – | –
CCNC(=O)Nc1ccc(Oc2ccccc2)c(-c2nn(C)c(=O)cc2OC)c1 | 2800 | 1900 | 13000 | – | – | – | – | – | – | – | – | – | –
CNc1cc(=O)n(C)nc1-c1ccccc1 | – | 160000 | – | – | – | – | – | – | – | – | – | – | –
COC(=O)C[C@@H]1N=C(c2ccc(Cl)cc2)c2c(sc(C)c2C)-n2c(C)nnc21 | – | 16.7 | – | – | – | – | – | – | – | – | – | – | –
CCOc1cc(=O)n(C)cc1-c1cc(CS(C)(=O)=O)ccc1Oc1ccc(F)cc1F | 230 | 120 | 140 | – | – | – | – | – | – | 2.8 to 4.3 | – | – | –
COc1cc(=O)n(C)nc1-c1cc(NC(C)=O)ccc1Oc1ccccc1 | 370 | 900 | 1300 | – | – | – | – | – | – | – | – | – | –
CCS(=O)(=O)Nc1cnc2c(c1)-c1cn(C)c(=O)cc1OCCCCc1cc(F)cc(F)c1O2 | 6.4 | 0.8 | 4.2 | < 28.3 | 250 | 75 | 0.49 | 317 | 27 | 2.8 to 4.3 | 15 | 0.12 | 9
CCS(=O)(=O)c1ccc2c(c1)-c1cn(C)c(=O)cc1OCCc1ccccc1O2 | 630 | 100 | 710 | 100 | 333 | 167 | – | – | – | 2.8 to 4.3 | – | – | –
CCS(=O)(=O)Nc1ccc2c(c1)-c1cn(C)c(=O)cc1OCCCCc1cc(F)cc(F)c1O2 | – | – | – | 67 | 700 | 317 | – | – | – | 2.8 to 4.3 | 8 | 0.03 | 6.8
CCOc1cc(=O)n(C)cc1-c1cc(NS(=O)(=O)CC)ccc1Oc1ccc(Cl)cc1 | 27 | 2.6 | 18 | < 50 | < 148 | 88.3 | – | – | – | – | – | – | –
COc1cc(=O)n(C)cc1-c1cc(NS(C)(=O)=O)ccc1Oc1ccccc1 | 77 | 58 | 130 | – | – | – | – | – | – | – | – | – | –
CCS(=O)(=O)c1ccc2c(c1)-c1cn(C)c(=O)cc1OCCCCc1cc(Cl)ccc1O2 | 16 | 2 | 13 | 167 | 883 | 700 | 0.44 | 167 | 41 | 2.8 to 4.3 | 41 | 0.04 | 7.6
CCOc1cc(=O)n(C)cc1-c1cc(NS(=O)(=O)CC)ccc1Oc1ccc(C#N)cc1 | 55 | 16 | 53 | < 26.7 | < 76.7 | < 43.3 | – | – | – | – | – | – | –
COc1cc(=O)n(C)cc1-c1ccccc1Oc1ccccc1 | 2800 | 450 | 1500 | – | – | – | – | – | – | – | – | – | –
CCOc1cc(=O)n(C)cc1-c1cc(NS(=O)(=O)CC)ccc1Oc1ccc(OC(F)(F)F)cc1 | 210 | 5.5 | 62 | 95 | 1500 | 3000 | – | – | – | – | – | – | –
CCS(=O)(=O)Nc1ccc2c(c1)-c1cn(C)c(=O)cc1OCCCCCc1cc(Cl)ccc1O2 | 35 | 2.8 | 16 | 517 | 4670 | 1830 | – | – | – | 4.3 | – | – | 0.89
